Source: PMC10829512, “Transport of metformin metabolites by guanidinium exporters of the small multidrug resistance family” (The Journal of General Physiology, 2024)
Where two headings read alike, the source gives them in different places.

Tests used:
Gdx-Eco [1] = biological target: T1, Gdx-Eco (Escherichia coli, UniProt P69937); assay: SSM electrophysiology of Gdx-Eco proteoliposomes; format: biochemical; conditions: for Transport currents in substrate screen: 2 mM substrate; for Km: pH 7.5, mean ± SEM, read-out: Km determined using SSM electrophysiology
T1 sequence (P69937 whole entry): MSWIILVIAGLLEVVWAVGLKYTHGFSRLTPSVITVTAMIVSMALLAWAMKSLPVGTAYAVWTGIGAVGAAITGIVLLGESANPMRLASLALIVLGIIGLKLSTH
Procedure: (§1) Gdx-Clo ([Kermani et al., 2018]), Gdx-Eco ([Kermani et al., 2018]), EmrE ([Kermani et al., 2022]), and Gdx-pAmi ([Martinez-Vaz et al., 2022]) construct design and purification have been described previously. […] Proteins were overexpressed in C41(DE3). Expression was induced by the addition of 0.2 mM IPTG for 3 h. Cells were lysed and extracted with 2% n-decyl-β-D-maltoside (DM) for 2 h. After pelleting insoluble cell debris, proteins were purified using cobalt affinity resin. Wash buffer contained 25 mM Tris, pH 8.5, 150 mM NaCl, and 5 mM DM. For Gdx-pAmi, NaCl concentration was increased to 500 mM NaCl. The affinity column was washed with wash buffer, then wash buffer with 10 mM imidazole, prior to elution with wash buffer with 400 mM imidazole. For Gdx-Clo and Gdx-Eco, histidine tags were cleaved with LysC (200 ng/mg of protein; 2 h at room temperature; New England Biolabs), and for all others, histidine tags were cleaved with thrombin (1 U/mg of protein, overnight at room temperature; MilliporeSigma). Proteins were further purified using a gel filtration Superdex200 column (Cytiva) equilibrated with 100 mM NaCl, 10 mM N-2-hydroxyethylpiperazine-N′-2-ethanesulfonic acid (HEPES), pH 7.5, and 5 mM DM. Purified proteins were stored at 4°C for up to 5 days before detergent binding assays. To prepare proteoliposomes for electrophysiology assays, purified protein was mixed with E. coli polar lipid extract (10 mg/ml; Avanti Polar Lipids) solubilized with 35 mM 3-[(3-cholamidopropyl)dimethylammonio]-1-propanesulfonate (CHAPS) at a protein to lipid ratio of 40 μg SMR transporter: mg lipid (1:370 protein:lipid molar ratio) prior to detergent removal by dialysis. For preparations that included Fluc-Bpe, liposomes were reconstituted with a molar ratio of 0.3 Fluc-Bpe:1 SMRGdx: 5920 lipid (1 μg Fluc-Bpe and ∼2.5 μg SMRGdx per mg lipid). For liposome transport assays, proteoliposomes were prepared similarly, except that a 2:1 mixture of 1-palmitoyl, 2-oleoylphosphatidylethanolamine (POPE) and 1-palmitoyl, 2-oleoylphosphatidylglycerol (POPG) (10 mg/ml; Avanti Polar Lipids) was used with 0.2 μg protein/mg lipid. Proteoliposomes were stored at −80°C until use.
(§2) SSM experiments were performed using SURFE^2R N1 instrument (Nanion Technologies). Sensors were prepared with a 1,2-diphytanoyl-sn-glycero-3-phosphocholine (DPhPC) lipid monolayer according to published protocols ([Bazzone et al., 2017]). Each sensor’s capacitance and conductance were verified before use (<80 nF capacitance, <50 nS conductance) using Nanion software protocols. Proteoliposome stock was diluted 1:25 in assay buffer (100 mM KCl, 100 mM KPO4, pH 7.5) prior to adsorption to the DPhPC monolayer. For substrate screening experiments, reference substrate samples (Gdm^+ for SMRGdx, and TPA^+ for SMRQac) were checked periodically to test for the stability of the sensor; if the current amplitude of the reference compound differed by >10% on one sensor, it indicated the desorption of liposomes, and the sensor was not used for further experiments. For every SSM electrophysiology experiment, we used the same general solution exchange protocol: after 2 s perfusion with a non-activating solution, we perfused substrate-containing buffer for 2 s and then returned to the equilibrium condition with a 4 s perfusion of non-activating buffer. For experiments with the S104C/A70C crosslinked variant, reducing conditions were established by the addition of 2.5 mM tris(2-carboxyethyl)phosphine (TCEP) to the activating and non-activating buffers.
(§3) We screened a series of metformin metabolites for transport using SSM electrophysiology (Fig. 2, A and B).

Gdx-Clo = biological target: T2, Gdx-Clo (Clostridiales bacterium oral taxon 876, UniProt U2EQ00); assay: SSM electrophysiology of Gdx-Clo proteoliposomes; format: biochemical, Clostridales oral taxon 876; conditions: for Transport currents in substrate screen: 2 mM substrate
T2 sequence (U2EQ00 1-105): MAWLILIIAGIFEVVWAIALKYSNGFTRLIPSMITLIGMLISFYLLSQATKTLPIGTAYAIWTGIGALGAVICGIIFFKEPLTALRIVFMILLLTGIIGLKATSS
Procedure: as §1, §2, §3

Gdx-Clo A70C/S104C = assay: Tryptophan fluorescence binding to crosslinked variant; set-up: species or system Clostridales oral taxon 876; conditions: A70C/S104C under oxidizing conditions, read-out: Kd, fit to a single-site binding model
Procedure: Fluorescence emission spectra (λex = 280 nm, […]) were collected for 1 µM purified protein in assay buffer containing 200 mM NaCl, 10 mM HEPES, 10 mM bicine, 10 mM NaPO4, and 5 mM DM, with pH adjusted from 6.5 to 9.0. Substrate was added from a stock solution prepared in assay buffer. For Gdm^+ titrations, the change in fluorescence, F, as a function of substrate fit to a single site binding isotherm, ∆F=(Fmax[S]/Kd+[S]). (3)
For all SSM electrophysiology experiments, the shapes of the substrate-induced currents are characteristic of transport, rather than electrogenic presteady binding events. However, we sought to confirm this interpretation for at least one transporter/substrate pair. Using the structure of Gdx-Clo ([Kermani et al., 2020]), we introduced a pair of cysteines, A70C and S104C, that are within the crosslinking distance (∼6 Å) on the open side of the transporter, but that increase in distance when the transporter changes conformation. We expected that the formation of a crosslink would lock the transporter in one open conformation, impairing transport, with little effect on substrate binding (Fig. 2 C). […] Substrate exchange is restored in reducing conditions. […]

Gdx-Eco [2] = biological target: T1, Gdx-Eco; set-up: method as in Kermani et al., 2018; Thomas et al., 2021; conditions: ref Kermani et al., 2018, Thomas et al., 2021; cited from earlier work
[3] = pH 7.5, mean ± SEM, read-out: Km determined using SSM electrophysiology
[4] = substrate at fivefold Km, normalized to Fluc-Bpe fluoride current

## N=C(N)NC(N)=O [Guanylurea, guanylurea]
Gdx-Eco [1]
  Transport currents in substrate screen: negative capacitive currents
  Km: 850 ± 100 µM
Gdx-Clo
  Transport currents in substrate screen: transported
Gdx-Clo; [3]
  Km: 220 ± 60 µM
Gdx-Clo; read-out: Km value
  Km: 220 µM

## N=C(N)N [Gdm^+, guanidinium]
Gdx-Clo A70C/S104C
  Kd: 560 µM
Gdx-Eco [1]
  Transport currents in substrate screen: negative capacitive currents
  Km: 1700 ± 500 µM
Gdx-Eco [1]; [4]
  Maximal velocity for Gdm+ relative to guanylurea: approximately twofold higher
Gdx-Clo
  Transport currents in substrate screen: transported
Gdx-Clo; [3]
  Km: 500 ± 100 µM
Gdx-Clo; read-out: Km value
  Km: 500 µM
Gdx-Clo; [4]
  Maximal velocity for Gdm+ relative to guanylurea: approximately twofold higher
Gdx-Eco [2]
  Proton coupling stoichiometry: 2 H^+: 1 Gdm^+
